Calls of active or inactive are those of the source.
Legend:
[1] = biological target: T1, DNA repair protein RAD52 homolog (Homo sapiens, UniProt P43351); type: functional, biochemical
T1 sequence (P43351 whole entry): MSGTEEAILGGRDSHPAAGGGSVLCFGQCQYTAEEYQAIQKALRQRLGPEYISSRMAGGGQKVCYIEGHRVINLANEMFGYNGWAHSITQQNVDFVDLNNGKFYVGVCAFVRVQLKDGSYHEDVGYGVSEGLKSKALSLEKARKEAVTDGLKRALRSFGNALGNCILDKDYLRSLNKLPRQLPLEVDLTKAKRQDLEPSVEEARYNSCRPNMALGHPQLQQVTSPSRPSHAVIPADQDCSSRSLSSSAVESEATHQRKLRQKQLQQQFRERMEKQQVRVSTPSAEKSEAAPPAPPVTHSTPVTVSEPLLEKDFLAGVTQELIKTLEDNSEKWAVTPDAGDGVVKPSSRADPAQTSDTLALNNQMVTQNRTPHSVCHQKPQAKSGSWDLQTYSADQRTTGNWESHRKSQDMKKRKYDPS

ORF 73 = biological target: T2, ORF 73 (Human herpesvirus 8, UniProt O40947); assay: inhibitors of C-LANA binding to LBS DNA, dose response, biochemical, fluorescence polarization, cherry-picked samples (AID 504725); parameters: species or system Human gammaherpesvirus 8;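 further: fluorescence polarization of a labeled DNA duplex reporting LANA DNA binding; potency is for inhibitors that block LANA binding to the DNA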
T2 sequence (O40947 whole entry): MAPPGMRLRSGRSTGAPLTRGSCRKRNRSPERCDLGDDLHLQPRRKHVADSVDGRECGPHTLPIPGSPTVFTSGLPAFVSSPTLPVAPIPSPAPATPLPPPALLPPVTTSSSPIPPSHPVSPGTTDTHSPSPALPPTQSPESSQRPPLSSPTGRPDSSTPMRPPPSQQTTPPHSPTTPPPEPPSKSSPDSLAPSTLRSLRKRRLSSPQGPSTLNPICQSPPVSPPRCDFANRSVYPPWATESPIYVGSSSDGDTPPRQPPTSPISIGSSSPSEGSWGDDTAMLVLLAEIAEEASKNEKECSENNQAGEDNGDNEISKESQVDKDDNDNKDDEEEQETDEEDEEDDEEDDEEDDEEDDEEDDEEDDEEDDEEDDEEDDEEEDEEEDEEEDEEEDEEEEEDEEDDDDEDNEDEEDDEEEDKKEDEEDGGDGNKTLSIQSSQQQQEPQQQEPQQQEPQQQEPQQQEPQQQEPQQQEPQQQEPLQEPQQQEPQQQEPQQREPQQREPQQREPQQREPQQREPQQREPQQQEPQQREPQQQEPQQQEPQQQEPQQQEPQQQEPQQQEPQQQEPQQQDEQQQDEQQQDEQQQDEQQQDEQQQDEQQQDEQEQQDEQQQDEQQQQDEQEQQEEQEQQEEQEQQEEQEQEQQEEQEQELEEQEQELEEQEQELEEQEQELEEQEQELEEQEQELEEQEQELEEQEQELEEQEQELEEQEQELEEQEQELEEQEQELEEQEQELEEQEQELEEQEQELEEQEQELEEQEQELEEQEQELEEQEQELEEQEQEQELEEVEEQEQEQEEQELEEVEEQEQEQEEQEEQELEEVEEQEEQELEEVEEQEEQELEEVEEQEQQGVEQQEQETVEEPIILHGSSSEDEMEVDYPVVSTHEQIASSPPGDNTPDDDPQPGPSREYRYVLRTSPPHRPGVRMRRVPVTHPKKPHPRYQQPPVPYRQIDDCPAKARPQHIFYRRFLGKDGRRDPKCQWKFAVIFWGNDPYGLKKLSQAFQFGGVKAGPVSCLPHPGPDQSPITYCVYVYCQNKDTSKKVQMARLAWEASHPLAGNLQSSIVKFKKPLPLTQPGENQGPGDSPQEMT

[2] = biological target: Polyadenylate-binding protein 1 (Homo sapiens, UniProt P11940); assay: PABP1 MLLE–PAM2 binding inhibitor potency, dose response, biochemical, fluorescence polarization, FITC-PAM2 peptide (AID 602259); type: functional; settings: read-out: IC50_Mean
Polyadenylate-binding protein 1, sequence (P11940 whole entry): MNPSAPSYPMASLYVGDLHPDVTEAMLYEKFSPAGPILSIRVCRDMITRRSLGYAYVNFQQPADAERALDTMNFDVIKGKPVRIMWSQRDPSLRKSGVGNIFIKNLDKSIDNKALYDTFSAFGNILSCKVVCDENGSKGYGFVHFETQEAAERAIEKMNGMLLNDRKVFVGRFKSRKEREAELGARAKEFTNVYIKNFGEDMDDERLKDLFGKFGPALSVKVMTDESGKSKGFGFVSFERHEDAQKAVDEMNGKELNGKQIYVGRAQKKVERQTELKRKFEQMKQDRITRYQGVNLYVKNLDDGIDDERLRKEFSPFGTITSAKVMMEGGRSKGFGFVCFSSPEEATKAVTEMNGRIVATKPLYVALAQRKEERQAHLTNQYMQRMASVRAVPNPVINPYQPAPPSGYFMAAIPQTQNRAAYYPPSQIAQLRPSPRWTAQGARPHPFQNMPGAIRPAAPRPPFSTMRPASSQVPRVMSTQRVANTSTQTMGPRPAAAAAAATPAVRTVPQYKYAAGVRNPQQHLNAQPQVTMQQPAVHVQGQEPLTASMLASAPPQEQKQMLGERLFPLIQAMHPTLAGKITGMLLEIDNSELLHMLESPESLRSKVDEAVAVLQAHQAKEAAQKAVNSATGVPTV

[3] = NIH-3T3 fibroblast cytotoxicity, dose response, cytotoxicity control, cell-based, fluorescence, Alamar Blue, secondary assay (AID 2327); type: functional;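 further: NIH-3T3 mouse fibroblasts cultured with fluconazole at 8 µg/mL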
Caspase-6 = biological target: T3, Caspase-6 (Homo sapiens, UniProt P55212); assay: human caspase-6 inhibitors, dose response, biochemical, VEID-R110 fluorescence, cherry-pick (AID 720632)
T3 sequence (P55212 whole entry): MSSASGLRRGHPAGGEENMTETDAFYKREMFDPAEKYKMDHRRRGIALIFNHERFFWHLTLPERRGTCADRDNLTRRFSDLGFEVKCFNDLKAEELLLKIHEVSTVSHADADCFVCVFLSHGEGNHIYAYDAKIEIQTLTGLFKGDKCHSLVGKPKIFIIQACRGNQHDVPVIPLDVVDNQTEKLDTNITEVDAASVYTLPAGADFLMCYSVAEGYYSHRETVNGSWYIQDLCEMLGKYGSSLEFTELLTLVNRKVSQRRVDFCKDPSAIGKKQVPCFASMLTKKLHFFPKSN

Caspase-8 = Caspase-8 (Homo sapiens, UniProt Q14790); assay: caspase-8 inhibition counter-screen, dose response, selectivity assay for caspase-6 inhibitor project, biochemical, Z-IETD-R110 fluorescence, cherry-picked samples (AID 743294)
Caspase-8, sequence (Q14790 217-374 limits assumed): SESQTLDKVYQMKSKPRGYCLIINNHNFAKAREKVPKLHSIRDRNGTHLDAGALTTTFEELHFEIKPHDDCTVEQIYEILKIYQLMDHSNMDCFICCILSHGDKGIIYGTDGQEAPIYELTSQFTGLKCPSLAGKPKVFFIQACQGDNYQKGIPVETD
Caspase-8, sequence (Q14790 385-479 limits assumed): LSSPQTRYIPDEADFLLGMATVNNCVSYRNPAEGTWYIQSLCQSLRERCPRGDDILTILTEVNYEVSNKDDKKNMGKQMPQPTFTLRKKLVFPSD

[4] = biological target: Serine/threonine-protein phosphatase PP1-alpha catalytic subunit (Homo sapiens, UniProt P62136); assay: PP1 phosphatase inhibitors, dose response, biochemical, fluorescence (AID 2394)
Serine/threonine-protein phosphatase PP1-alpha catalytic subunit, sequence (P62136 whole entry): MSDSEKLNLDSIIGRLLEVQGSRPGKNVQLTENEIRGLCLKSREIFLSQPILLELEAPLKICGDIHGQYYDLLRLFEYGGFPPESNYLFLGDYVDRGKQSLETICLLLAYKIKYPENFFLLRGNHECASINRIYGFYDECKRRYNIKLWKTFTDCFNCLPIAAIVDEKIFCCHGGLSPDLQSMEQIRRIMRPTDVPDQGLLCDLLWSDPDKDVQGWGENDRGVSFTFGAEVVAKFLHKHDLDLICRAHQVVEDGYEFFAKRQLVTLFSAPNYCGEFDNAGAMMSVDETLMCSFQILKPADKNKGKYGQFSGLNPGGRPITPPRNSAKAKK

[5] = biological target: Serine/threonine-protein phosphatase (Homo sapiens, UniProt Q9BPW0); assay: PP5 phosphatase inhibitors, dose response, biochemical, fluorescence (AID 2395)
Serine/threonine-protein phosphatase, sequence (Q9BPW0 whole entry): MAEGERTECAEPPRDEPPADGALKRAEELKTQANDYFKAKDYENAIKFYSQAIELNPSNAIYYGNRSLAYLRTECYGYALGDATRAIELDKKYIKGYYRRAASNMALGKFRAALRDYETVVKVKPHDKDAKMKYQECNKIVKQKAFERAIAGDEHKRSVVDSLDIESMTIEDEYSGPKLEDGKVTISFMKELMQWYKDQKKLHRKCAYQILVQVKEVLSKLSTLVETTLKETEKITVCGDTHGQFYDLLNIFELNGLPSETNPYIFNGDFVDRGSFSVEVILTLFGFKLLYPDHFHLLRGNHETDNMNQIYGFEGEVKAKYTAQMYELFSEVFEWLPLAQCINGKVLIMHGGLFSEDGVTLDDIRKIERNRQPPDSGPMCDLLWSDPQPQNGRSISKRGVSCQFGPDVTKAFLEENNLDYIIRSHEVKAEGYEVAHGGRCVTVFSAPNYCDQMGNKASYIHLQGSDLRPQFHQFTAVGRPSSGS

[6] = biological target: T4, Sentrin-specific protease 8 (Homo sapiens, UniProt Q96LD8); type: functional;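 further: kinetic enzyme assay of SENP8 cleaving a Nedd8 protein substrate, dose-response confirmation of screening hits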
T4 sequence (Q96LD8 whole entry): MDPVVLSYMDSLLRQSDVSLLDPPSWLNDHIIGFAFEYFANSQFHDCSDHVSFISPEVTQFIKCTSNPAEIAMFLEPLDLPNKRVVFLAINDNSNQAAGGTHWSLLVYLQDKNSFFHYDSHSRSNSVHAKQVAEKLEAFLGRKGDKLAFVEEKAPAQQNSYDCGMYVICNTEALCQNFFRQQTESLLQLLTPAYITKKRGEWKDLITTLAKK

[7] = biological target: Proto-oncogene tyrosine-protein kinase receptor Ret (Homo sapiens, UniProt P07949); type: functional;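 further: measured within a kinome-wide profiling panel, RET as the panel member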
Proto-oncogene tyrosine-protein kinase receptor Ret, sequence (P07949 whole entry): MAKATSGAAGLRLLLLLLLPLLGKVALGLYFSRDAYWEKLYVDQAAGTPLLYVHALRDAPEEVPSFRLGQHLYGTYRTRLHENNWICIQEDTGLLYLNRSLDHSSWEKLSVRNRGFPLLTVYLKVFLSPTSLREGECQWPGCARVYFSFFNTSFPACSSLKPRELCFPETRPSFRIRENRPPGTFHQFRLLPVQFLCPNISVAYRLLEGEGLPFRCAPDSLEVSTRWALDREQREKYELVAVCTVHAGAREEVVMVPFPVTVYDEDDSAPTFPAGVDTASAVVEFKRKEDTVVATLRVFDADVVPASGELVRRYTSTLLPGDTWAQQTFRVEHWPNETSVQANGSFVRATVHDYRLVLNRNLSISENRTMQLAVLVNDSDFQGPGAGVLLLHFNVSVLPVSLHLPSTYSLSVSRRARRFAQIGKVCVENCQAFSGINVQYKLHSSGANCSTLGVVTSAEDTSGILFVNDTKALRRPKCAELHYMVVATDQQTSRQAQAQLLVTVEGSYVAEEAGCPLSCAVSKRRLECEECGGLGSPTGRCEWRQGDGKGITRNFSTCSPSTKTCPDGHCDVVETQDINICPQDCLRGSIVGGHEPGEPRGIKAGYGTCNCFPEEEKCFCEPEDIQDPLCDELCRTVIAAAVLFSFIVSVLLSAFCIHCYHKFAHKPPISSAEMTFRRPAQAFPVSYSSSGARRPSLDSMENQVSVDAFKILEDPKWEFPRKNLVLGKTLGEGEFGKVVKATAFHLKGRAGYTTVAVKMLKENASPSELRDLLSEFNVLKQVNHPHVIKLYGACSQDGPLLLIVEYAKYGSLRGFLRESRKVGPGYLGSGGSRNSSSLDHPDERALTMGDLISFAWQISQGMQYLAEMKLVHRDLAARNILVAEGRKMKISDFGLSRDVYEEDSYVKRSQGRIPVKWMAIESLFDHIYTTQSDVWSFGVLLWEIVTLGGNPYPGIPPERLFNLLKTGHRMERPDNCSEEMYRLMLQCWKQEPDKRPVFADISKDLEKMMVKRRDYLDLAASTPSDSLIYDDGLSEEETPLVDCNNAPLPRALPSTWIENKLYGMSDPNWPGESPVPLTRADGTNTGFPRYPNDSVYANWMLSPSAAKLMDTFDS

## CCN(CC)CCOc1ccc2c(c1)C(=NNC(=O)c1ccccn1)c1cc(OCCN(CC)CC)ccc1-2
[1]
  AC50: < 0.15 µM (active)

## O=C(O)c1ccc2c(c1)[C@@H]1C=CC[C@@H]1[C@H](c1ccccn1)N2
ORF 73
  AC50: 21.7 µM (active)
[2]
  IC50: 53.3 µM (inactive)
[3]
  EC50: > 150 µM (inactive)

## Oc1nc(Nc2ccc(F)cc2)cc2ccccc12
Caspase-6
  AC50: 0.942 µM (active)
Caspase-8
  AC50: 2.48 µM (active)

## CN(C)c1cc(N/N=C\c2ccccc2)nc(N(C)C)n1
[4]
  IC50: > 67 µM (not active)
[5]
  IC50: 6.1 µM (active)
[6]
  IC50: 0.661 µM (active)

## NC(COc1cncc(-c2ccc3c(c2)C(=Cc2ccc[nH]2)C(=O)N3)c1)Cc1ccccc1 (stereo not given)
[7]
  Ki: 0.00501 µM (active)
